Data: US20260118357A1, “TETRA-FUNCTIONAL CHEMICAL PROBE AND METHOD FOR IDENTIFYING TARGET MEMBRANE PROTEIN FROM LIVING CELL OR LIVING TISSUE BY USING SAID PROBE” (priority 2019, published 2026)

Legend:
Type in all cases: cell-based
[1] = tested on: GABA receptor subunits (Gabra1, Gabra2, Gabra5, Gabrg2); assay: Isolation and detection of target molecule from living tissue (brain slices) using the probe, LC-MS; conditions: DBA/2CrSlc mouse brain slices, CPF-202 302 nm UV 1 minute, CPF-242 365 nm UV 15 minutes, FIGS. 3 and 4
Protocol: (§1) A DBA/2CrSlc mouse was anesthetized by isoflurane inhalation and then decapitated, and the brain was quickly removed. The removed brain was immersed in artificial cerebrospinal fluid (ACSF) at 0° C. for 60 seconds while being continuously bubbled with a gas mixture (95% O2, 5% CO2). The olfactory bulb and cerebellum were removed with a scalpel, and the brain was fixed to the stage of a vibrating blade microtome (Leica, VT1200) using instant glue. Sliced sections (thin sections having a thickness of 0.3 mm) of the brain containing the striatum and hippocampus were prepared in ACSF at 0° C. continuously bubbled with the gas mixture. The sliced sections were placed in a dish containing artificial cerebrospinal fluid. An unmodified ligand or DMSO was added, and the dish was allowed to stand at room temperature for 5 minutes. Subsequently, compound (CPF-224) produced in Production Example 10 or compound (CPF-202) produced in Production Example 8 was added, and the dish was allowed to stand at room temperature for 30 minutes. The solution was removed, and the sliced sections were irradiated with UV light (in the cases of CPF-224 and CPF-202, 302 nm UV light for 1 minute; in the case of CPF242, 365 nm UV light for 15 minutes). The sliced sections were washed and collected with PBS, and the supernatant was removed by centrifugation (3000×g, 4° C., 5 minutes). The obtained pellets were analyzed by the same method as in Test Example 1. The analysis was performed in two independent tests, and the results can be expressed as a ratio relative to those in the group treated with the unmodified ligand.

[2] = target: T1, human dopamine receptor D2 (DRD2) (Homo sapiens, UniProt P14416); assay: Isolation and detection of target molecule from living cells using the probe (UV crosslinking, streptavidin enrichment, LC-MS); conditions: CHO-K1 cells stably expressing human DRD2; 302 nm UV 1 minute; LC-MS LFQ; two independent tests; FIG. 1
T1 construct: expressed in transfected cells; host or cells: CHO-K1
T1 sequence (P14416 whole entry): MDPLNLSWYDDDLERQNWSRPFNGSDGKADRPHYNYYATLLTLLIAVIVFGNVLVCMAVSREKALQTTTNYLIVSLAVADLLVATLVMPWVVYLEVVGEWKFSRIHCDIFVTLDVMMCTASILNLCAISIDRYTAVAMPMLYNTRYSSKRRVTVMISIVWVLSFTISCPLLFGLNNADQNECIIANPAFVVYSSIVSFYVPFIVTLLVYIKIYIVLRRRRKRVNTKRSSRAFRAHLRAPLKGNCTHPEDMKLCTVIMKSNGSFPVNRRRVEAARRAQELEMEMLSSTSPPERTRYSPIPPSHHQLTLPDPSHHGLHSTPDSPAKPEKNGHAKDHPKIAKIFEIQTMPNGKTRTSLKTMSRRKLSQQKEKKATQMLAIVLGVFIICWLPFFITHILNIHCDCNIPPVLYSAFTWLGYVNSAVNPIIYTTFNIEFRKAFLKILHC
Protocol: CHO-K1 cells stably expressing human dopamine receptor D2 (DRD2) were cultured on a 10-cm plate until they became confluent.
The cells were washed with a medium, and the medium was replaced with a medium containing DMSO or an unmodified ligand, followed by a reaction for 30 minutes. Subsequently, the medium was discarded and replaced with a medium containing compound (CPP-127) synthesized in Production Example 12, and the cells were allowed to stand at 37° C. for 30 minutes. The medium was discarded, and the cells were washed with PBS. PBS (1 ml) was added to the cells on the plate, and then the cells were irradiated with 302 nm UV light for 1 minute using a UV crosslinker. The cells were collected with a cell scraper after UV irradiation, and the collected cell pellets were cryopreserved at −80° C.
The cryopreserved cells were suspended in 50 mM Tris Homogenate Buffer (pH 7.4, 2.5 mM EDTA, 5 mM MgCl2, 320 mM sucrose) and homogenized using a sonicator. […]
The obtained tryptic digest was desalted and purified, and protein analysis was performed by LC-MS. […] A full scan MS spectrum was acquired in the m/z range of 380 to 1600, and a product ion spectrum was measured in data dependent acquisition mode. The data obtained by LC-MS were analyzed by Proteome Discoverer 2.2 analysis software (PD 2.2, Thermo Fisher Scientific). […]

[3] = tested on: AMPA-type glutamate receptors (Gria1, Gria2, Gria3, Gria4); assay: Isolation and detection of target molecule from living tissue (brain slices) using the probe, LC-MS; conditions: DBA/2CrSlc mouse brain slices, 302 nm UV 1 minute, two independent tests, FIG. 2
Protocol: as §1

For `CC1(C)CC(=O)C(=C(CCOCCOCCOCCOCCNC(=O)CCCC[C@@H]2SC[C@@H]3NC(=O)N[C@@H]32)NCCCC(=O)Nc2ccc(-n3nnc(C(=O)NCCCN4C(=O)CN=C(c5ccccc5)c5cc(Cl)ccc54)n3)cc2)C(=O)C1` [CPF-202], the “detection of GABA receptor subunits compared with the group treated with the unmodified ligand” value [1] was “specifically collected”.

For `CC1(C)CC(=O)C(=C(CCOCCOCCOCCOCCNC(=O)CCCC[C@@H]2SC[C@@H]3NC(=O)N[C@@H]32)NCCCCCNC(=O)CCC2(CCC(=O)NCCCN3C(=O)CN=C(c4ccccc4)c4cc(Cl)ccc43)N=N2)C(=O)C1` [CPF-242], the “detection of GABA receptor subunits compared with the group treated with the unmodified ligand” value [1] was “specifically collected”.

In the case of `CC1(C)CC(=O)C(=C(CCOCCOCCOCCOCCNC(=O)CCCC[C@@H]2SC[C@@H]3NC(=O)N[C@@H]32)NCCCC(=O)Nc2ccc(-n3nnc(C(=O)NCCCCC(=O)NCCCN4CCc5ccc(OCCCN6CCN(c7cccc8sccc78)CC6)cc5C4=O)n3)cc2)C(=O)C1` [CPP-127], the “detection of dopamine receptor D2 compared with the group treated with the unmodified ligand” value [2] is reported as “specifically collected”.

For `CC1(C)CC(=O)C(=C(CCOCCOCCOCCOCCNC(=O)CCCC[C@@H]2SC[C@@H]3NC(=O)N[C@@H]32)NCCCC(=O)Nc2ccc(-n3nnc(C(=O)NCc4ccn(-c5cc6c(cc5C(F)(F)F)[nH]c(=O)c(=O)n6CC(=O)O)c4)n3)cc2)C(=O)C1` [CPF-224], the “detection of AMPA-type glutamate receptors compared with the group treated with the unmodified ligand” value [3] was “specifically collected”.
